Patent US9522908B2, “Ezrin inhibitors and methods of making and using” (Georgetown University, priority 2010, dated 2016)

What was measured:
[1] = biological target: T1, recombinant WT ezrin protein (Mus musculus, UniProt P26040); test: SPR direct binding to immobilized recombinant WT ezrin (Biacore); conditions: 5 independent experiments
T1 construct: full-length recombinant ezrin protein was expressed in bacteria; made in house; host or cells: E. coli M15pREP4 (pQE16 vector)
Protocol: FIG. 7 provides results illustrating the functional activity of select compounds of the present invention on ezrin protein. The chemical structure of the embodied compounds is detailed and the corresponding binding and viability values are listed. The binding potential of select compounds to ezrin was analyzed by using SPR. Recombinant WT ezrin was immobilized onto a Biacore CM5 sensorchip and compounds were injected one-at-a-time at 6 different concentrations. SPR sensograms and KD values were determined using Biacore software. […] The viability and growth inhibition activity of select compounds were determined by treatment of high ezrin expressed K7M2 and low ezrin expressed K12 osteosarcoma cells with a dose range of the select compound for 24 hours. […]
Compounds for initial screening were acquired from 4 libraries (Challenge Set, Diversity Set, Mechanistic Set and Natural Product Set) of the Developmental Therapeutics Program, National Cancer Institute. Their direct ezrin binding potential was analyzed by using Biacore T100 v2.0.3 instrument (GE Healthcare, Piscataway N.J.). […] Existing interactions are measured based on total mass change on the chip surface. Recombinant WT ezrin protein was used as the ligand and immobilized on to a Biacore CM5 sensorchip and compounds were injected one at a time as the binding interactions were recorded. […]

PKC,τ, PKC,α and PKC,γ = test: Radioactive in vitro kinase assay of PKC isoforms with nonspecific substrate; assay type: biochemical
Protocol: FIG. 2 illustrates NSC305787 and NSC668394 inhibit ezrin T567 phosphorylation. (A) K7M2 metastatic OS cell line was treated with NSC305787 (10 μM) and NSC668394 (10 μM) for 6 hours. […] The effect of NSC305787 and NSC668394 on recombinant ezrin phosphorylation by recombinant PKC, was tested in an in vitro kinase assay. Phoshorylation of ezrin was detected by a phosphospecific antibody following PAGE and immunoblotting. Experiments were repeated three times and densitometric analysis of bands was used for calculation of % inhibition (graphs). Error bars represents s.d. from three independent experiments. Kinase activities of PKC,τ, PKC,α and PKC,γ were also evaluated with a nonspecific substrate in the presence of NSC305787 and NSC668394 by a radioactive in vitro kinase assay. Data analysis was done by using a sigmoidal dose-response equation where log EC50 for each curve with the ezrin substrate and the non-specific substrate were compared to each other (P=0.0118 for NSC305787 and P=0.0084 for NSC668394).
500 ng of recombinant ezrin protein in kinase assay mix (200 μM ATP) was incubated with the compounds at 1-100 μM concentrations for 15 minutes on ice, then 50 ng PKC,τ (Millipore, Billerica, Mass.) was added. Reaction was performed at 30° C. for 30 min and stopped by adding 2× sample buffer. […]

[2] = biological target: T2, ezrin / poly-A-binding protein 1 (PABP1) interaction (Mus musculus, UniProt P26040); test: Ezrin-PABP1 interaction by immunoprecipitation and western blot; assay type: cell-based; conditions: cells treated 60 min prior to immunoprecipitation
T2 construct: endogenous in cells; host or cells: K7M2 osteosarcoma cells
Protocol: (A) Total cell lysates from K7M2 osteosarcoma cells were immunoprecipitated by using an anti-ezrin antibody. As a control, non-specific total IgG was used. Immunoprecipitates were run on SDS-PAGE and Western Blot was performed using anti-ezrin (lower panel) and anti-PABP1 (upper panel) antibodies. PABP1 protein was detected in immunoprecipitates of ezrin, suggetsing that these two proteins interact with each other in a protein complex. (B) Ezrin-PABP1 interaction was also evaluated in an ELISA experiment where recombinant ezrin protein was immmobilized on surface and total cell lysates from osteosarcoma cells were applied on top. Amount of PABP1 binding to ezrin on the surface was detected by a anti-PABP1 primary antibody followed by enzyme linked secondary antibody. (C) Immunoprecipitation and western experiment was prepared as described in panel A. Cells were treated with NSC305787 (compound 8) and NSC668394 (compound 16) for 60 min prior to immunoprecipitation. Both NSC305787 and NSC668394 inhibited interaction of PABP1 with ezrin

actin = test: SPR binding to actin (negative control); conditions: data not shown
K12 cells = test: Invasion of HUVEC monolayer by K12 cells (ECIS, xCELLigence); assay type: cell-based
Protocol: (§1) FIG. 3 illustrates NSC305787 and NSC668394 inhibit ezrin mediated invasion of OS cells. (A) Endogenous ezrin protein levels in K12 and K7M2 cells are shown. Equal loading is determined by blotting with an actin antibody. […] Error bars represent standard deviation from duplicate data points. The experiments were performed in duplicates. Cell index is a measurement parameter with no units. In this assay a decrease in cell index represents invasion of HUVEC layer by OS cells. It is measured according to the following formula: Cell index=((Rt−R0)/F where, Rt is resistance at time point t, R0 is background resistance (measured with media alone, no cells), and F is frequency at which measurement is taken (10 kHz).
(§2) The anti-invasive potential of NSC305787 and NSC668394 were evaluated by using electric cell impedance sensing (ECIS) on a Roche xCELLigence system (Roche, Indianapolis, Ind.). Briefly, HUVEC cells (25,000/well) were seeded in a 96-well plate in EGM-2 media (Lonza, Basel, CH). Following formation of a confluent HUVEC monolayer (app 32 hrs), EGM-2 media was aspirated and a layer of OS cells (10,000 cells/well) was added in DMEM media containing the compounds. This time point was accepted as 0 hr of treatment and invasion was monitored during the following 6 hrs by measuring changes in resistance at the cell-electrode interphase.

K7M2 cells = test: Invasion of HUVEC monolayer by K7M2 cells (ECIS, xCELLigence); assay type: cell-based; conditions: 1 μM and 10 μM, vs control 1% DMSO
Protocol: as §1, §2

T1 sequence (P26040 whole entry): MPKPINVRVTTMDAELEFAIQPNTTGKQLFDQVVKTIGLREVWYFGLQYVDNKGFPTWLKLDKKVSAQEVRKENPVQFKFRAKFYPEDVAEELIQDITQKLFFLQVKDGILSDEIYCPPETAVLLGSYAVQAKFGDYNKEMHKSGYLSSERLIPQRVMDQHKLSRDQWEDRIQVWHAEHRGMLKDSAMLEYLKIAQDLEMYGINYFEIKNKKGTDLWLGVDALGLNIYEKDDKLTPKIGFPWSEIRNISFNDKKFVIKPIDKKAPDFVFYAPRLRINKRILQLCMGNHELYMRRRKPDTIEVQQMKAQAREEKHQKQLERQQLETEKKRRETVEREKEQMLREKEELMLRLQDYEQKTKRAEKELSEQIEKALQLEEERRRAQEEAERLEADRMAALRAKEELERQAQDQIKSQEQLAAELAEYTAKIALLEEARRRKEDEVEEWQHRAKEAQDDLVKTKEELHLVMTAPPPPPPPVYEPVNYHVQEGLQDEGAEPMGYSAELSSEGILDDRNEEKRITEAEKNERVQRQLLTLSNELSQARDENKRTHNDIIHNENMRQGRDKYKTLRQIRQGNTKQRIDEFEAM
T2 sequence (P26040 whole entry): as above

OC(c1cc(C23CC4CC(CC(C4)C2)C3)nc2c(Cl)cc(Cl)cc12)C1CCCCN1 (centres unmarked) [NSC305787]
Kd [1]: 5.85 µM
concentration to inhibit all three PKC isoforms (PKC,τ, PKC,α and PKC,γ; nonspecific substrate): ~50 µM
fold higher concentration to inhibit PKC isoforms than to inhibit ezrin phosphorylation (PKC,τ, PKC,α and PKC,γ; nonspecific substrate vs ezrin substrate): 10 fold
interaction of PABP1 with ezrin [2]: inhibited
Kd (actin): 91.4 µM
invasion of K12 cells (K12 cells; 1 μM): did not have any effect
invasion of K12 cells (K12 cells; 10 μM): did not have any effect
invasion of K7M2 cells through HUVEC monolayer (K7M2 cells): inhibited invasion
